Like-named read-outs stand apart in the source and are kept apart here.
What was measured:
human H3 receptor = target: T1, human H3 receptor (Homo sapiens, UniProt Q9Y5N1); test: Human H3 radioligand binding ([3H]-N-alpha-methylhistamine, SPA)
T1 construct: expressed in transfected cells
Summary of the method: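 Compounds (0.01 nM-30 μM) competed with approximately 1 nM [3H]-N-alpha-methylhistamine for human H3 receptor in membranes of stably transfected CHO cells, 10 μg protein per well, in Tris-HCl pH 7.4/MgCl2/BSA buffer for 4 h at room temperature. Bound radioligand measured by scintillation proximity; 10 μM clobenpropit gave non-specific binding.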

[1] = target: T2, rat histamine H3 receptor (Rattus norvegicus, UniProt Q9QYN8); test: Rat H3 radioligand binding ([3H]-N-alpha-methylhistamine, SPA)
T2 construct: encoding the entire 445-amino-acid rat histamine H3 receptor; expressed in transfected cells; membrane preparation
Summary of the method: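 SPA-bead binding assay using [3H]-N-alpha-methylhistamine (approximately 1 nM final) with test compounds from 0.01 nM to 30 μM. Rat H3 receptor membranes came from stably transfected CHO-A3 cells; incubation ran 4 h at room temperature, in the dark, in Tris pH 7.4 buffer with MgCl2 and BSA. Clobenpropit (10 μM) gave non-specific binding.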

[2] = human H3 binding, Table D, read-out: Human H3 Ki
[3] = rat H3 binding, Table D, read-out: Rat H3 Ki
[4] = Table C, human H3 binding, read-out: Human H3 Ki
[5] = Table C, rat H3 binding, read-out: Rat H3 Ki
[6] = Table A, human H3 binding, read-out: Human Ki
[7] = Table A, rat H3 binding, read-out: Rat Ki
[8] = Human H3 binding, Table B, Examples 136-362, read-out: hum H3 binding Ki
[9] = Rat H3 binding, Table B, Examples 136-362, read-out: rat H3 binding Ki

T2 sequence (Q9QYN8 whole entry): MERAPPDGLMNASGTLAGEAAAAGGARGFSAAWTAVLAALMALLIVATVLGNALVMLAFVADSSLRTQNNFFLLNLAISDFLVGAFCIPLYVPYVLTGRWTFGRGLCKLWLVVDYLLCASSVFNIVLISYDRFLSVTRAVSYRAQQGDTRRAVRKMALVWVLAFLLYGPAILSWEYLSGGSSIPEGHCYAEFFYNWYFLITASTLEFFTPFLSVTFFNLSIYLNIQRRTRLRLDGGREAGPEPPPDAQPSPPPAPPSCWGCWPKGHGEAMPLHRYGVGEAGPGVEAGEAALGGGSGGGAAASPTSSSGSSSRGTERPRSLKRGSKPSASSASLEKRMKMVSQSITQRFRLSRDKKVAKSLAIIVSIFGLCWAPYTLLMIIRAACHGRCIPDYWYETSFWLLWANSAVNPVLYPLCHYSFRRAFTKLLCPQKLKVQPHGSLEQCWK
T1 sequence (Q9Y5N1 whole entry): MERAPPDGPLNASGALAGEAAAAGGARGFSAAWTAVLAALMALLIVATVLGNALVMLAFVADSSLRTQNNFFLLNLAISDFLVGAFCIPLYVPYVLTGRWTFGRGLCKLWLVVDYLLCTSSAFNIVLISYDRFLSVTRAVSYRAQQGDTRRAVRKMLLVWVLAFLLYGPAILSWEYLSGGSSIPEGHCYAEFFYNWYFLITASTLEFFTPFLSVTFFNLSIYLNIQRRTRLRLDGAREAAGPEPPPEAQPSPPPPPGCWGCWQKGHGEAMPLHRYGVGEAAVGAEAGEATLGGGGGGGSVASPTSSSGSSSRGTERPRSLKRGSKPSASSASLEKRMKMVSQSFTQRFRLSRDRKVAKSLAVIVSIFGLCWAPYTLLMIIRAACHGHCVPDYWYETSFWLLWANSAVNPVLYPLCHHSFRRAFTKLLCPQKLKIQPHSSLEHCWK

| Ki (human H3 receptor; [2]) | melting point | Ki [1, 3] | SMILES | other results |
| --- | --- | --- | --- | --- |
| < 200 nM | 70 to 72 °C | < 200 nM | COc1cc(-c2ccc3c(c2)COC2(CCN(C4CCC4)CC2)O3)cn(C)c1=O [Example 761] |  |
| < 200 nM | 83 to 85 °C | < 200 nM | c1nnc(CCc2ccc3c(c2)COC2(CCN(C4CCC4)CC2)O3)o1 [Example 675] |  |
| < 200 nM | 59 to 61 °C | < 200 nM | Cc1c(-c2ccc3c(c2)COC2(CCN(C4CCC4)CC2)O3)ccc(=O)n1C [Example 760] |  |
| < 200 nM | 175 to 177 °C | < 200 nM | CNC(=O)c1ccc(-c2ccc3c(c2)COC2(CCN(C4CCC4)CC2)O3)cc1OC [Example 633] |  |
|  | 237 to 239 °C |  | O=C(OCc1ccccc1)N1CC=C(c2ccc3c(c2)CCC2(CCN(C4CCC4)CC2)O3)CC1 [Example 447] | Ki (human H3 receptor; read-out: Human H3 Ki): < 200 nM; Ki ([1]; read-out: Rat H3 kI): < 200 nM |
| < 200 nM | 107 to 109 °C | < 200 nM | Cn1nccc1-c1ccc2c(c1)COC1(CCN(C3CCC3)CC1)O2 [Example 740] |  |
|  | 258 to 260 °C |  | CS(=O)(=O)c1ccc(N2CCN(c3ccc4c(c3)CCC3(CCN(C5CCC5)CC3)O4)CC2)nc1 [Example 383] | Ki (human H3 receptor; [4]): < 200 nM; Ki [1, 5]: < 200 nM |
|  | 195 to 197 °C |  | O=C1CCN1c1ccc2c(c1)CCC1(CCN(C3CCC3)CC1)O2 [Example 120] | Ki (human H3 receptor; [6]): < 200 nM; Ki [1, 7]: < 200 nM |
| < 200 nM | 129 to 130 °C | < 200 nM | O=c1ccc(-c2ccc3c(c2)COC2(CCN(C4CCC4)CC2)O3)cn1CCO [Example 720] |  |
|  | 120 to 126 °C |  | O=C1CCC(c2ccc3c(c2)COC2(CCN(C4CCC4)CC2)O3)CN1CC(F)F (stereo not drawn) [Example 560] | Ki (human H3 receptor; read-out: Human H3 Ki): 200 to 1000 nM; Ki ([1]; read-out: Rat H3 kI): 200 to 1000 nM |
|  | 152 to 155 °C |  | O=C1N(CCO)CCN1c1ccc2c(c1)COC1(CCN(C3CCC3)CC1)O2 [Example 146] | Ki (human H3 receptor; [8]): < 200 nM; Ki [1, 9]: < 200 nM |
|  | 100.2 to 102.5 °C |  | CNC(=O)c1cccc(-c2ccc3c(c2)CCOC2(CCN(C4CCC4)CC2)O3)c1 [Example 177] | Ki (human H3 receptor; [8]): 200 to 1000 nM; Ki [1, 9]: > 1000 nM |
|  | 264 to 267 °C |  | CNC(=O)C1CCN(c2ccc3c(c2)CCC2(CCN(C4CCC4)CC2)O3)CC1 [Example 396] | Ki (human H3 receptor; [4]): < 200 nM; Ki [1, 5]: < 200 nM |
|  | 170 to 172 °C |  | O=C1CCCN1CCOc1ccc2c(c1)CCC1(CCN(C3CCC3)CC1)O2 [Example 458] | Ki (human H3 receptor; read-out: Human H3 Ki): < 200 nM; Ki ([1]; read-out: Rat H3 kI): < 200 nM |
|  | 168 to 169 °C |  | C1=C(c2ccc3c(c2)COC2(CCN(C4CCC4)CC2)O3)CCOC1 [Example 478] | Ki (human H3 receptor; read-out: Human H3 Ki): < 200 nM; Ki ([1]; read-out: Rat H3 kI): < 200 nM |
|  | 45 to 48 °C |  | c1cc(CNc2ccc3c(c2)COC2(CCN(C4CCC4)CC2)O3)ccn1 [Example 247] | Ki (human H3 receptor; [8]): < 200 nM; Ki [1, 9]: < 200 nM |
|  | 212.6 to 214.2 °C |  | CNC(=O)c1c(F)cc(-c2ccc3c(c2)COC2(CCN(C4CCC4)CC2)O3)cc1F [Example 220] | Ki (human H3 receptor; [8]): < 200 nM; Ki [1, 9]: < 200 nM |
|  | 153 to 155 °C |  | O=C1CC=C(c2ccc3c(c2)COC2(CCN(C4CCC4)CC2)O3)CC1 [Example 497] | Ki (human H3 receptor; read-out: Human H3 Ki): < 200 nM; Ki ([1]; read-out: Rat H3 kI): < 200 nM |
|  | 234 to 235 °C |  | COCCNC(=O)c1ccc(-c2ccc3c(c2)COC2(CCN(C4CCC4)CC2)O3)cc1Cl [Example 330] | Ki (human H3 receptor; [8]): < 200 nM; Ki [1, 9]: < 200 nM |
| < 200 nM | 230 to 232 °C | < 200 nM | O=c1ccc(-c2ccc3c(c2)COC2(CCN(C4CCOCC4)CC2)O3)c[nH]1 [Example 723] |  |

| Ki (human H3 receptor; [2]) | melting point | Ki [1, 3] | SMILES | other results |
| --- | --- | --- | --- | --- |
|  | 184 to 186 °C |  | O=C(NC[C@H]1CCCO1)c1ccc(-c2ccc3c(c2)COC2(CCN(C4CCC4)CC2)O3)cc1 [Example 67] | Ki (human H3 receptor; [6]): < 200 nM; Ki [1, 7]: < 200 nM |
|  | 70.2 to 72.2 °C |  | O[C@@H]1CCN(c2ccc3c(c2)COC2(CCN(C4CCC4)CC2)O3)C1 [Example 347] | Ki (human H3 receptor; [8]): < 200 nM; Ki [1, 9]: < 200 nM |
|  | 85 to 87 °C |  | c1ccc(CNc2ccc3c(c2)COC2(CCN(C4CCC4)CC2)O3)cc1 [Example 305] | Ki (human H3 receptor; [8]): < 200 nM; Ki [1, 9]: < 200 nM |
| < 200 nM | 189 to 192 °C | < 200 nM | CN(C)S(=O)(=O)c1ccc(-c2ccc3c(c2)COC2(CCN(C4CCC4)CC2)O3)s1 [Example 654] |  |
| < 200 nM | 112 to 114 °C | < 200 nM | NC(=O)c1ccc(-c2ccc3c(c2)COC2(CCN(C4CCC4)CC2)O3)c(Cl)c1 [Example 715] |  |
|  | 102 to 103 °C |  | c1ccc(COc2ccc3c(c2)CCC2(CCN(C4CCC4)CC2)O3)cc1 [Example 189] | Ki (human H3 receptor; [8]): < 200 nM; Ki [1, 9]: < 200 nM |
| < 200 nM | 224 to 225 °C | < 200 nM | Cc1cnc(-c2ccc3c(c2)COC2(CCN(C4CCC4)CC2)O3)c(C)n1 [Example 731] |  |
| < 200 nM | 155 to 156 °C | < 200 nM | CC(C)NC(=O)c1ccc(-c2ccc3c(c2)CCC2(CCN(C4CCC4)CC2)O3)cc1Cl [Example 587] |  |
| 200 to 1000 nM | 139 to 141 °C | 200 to 1000 nM | COc1ccc(-c2ccc3c(c2)COC2(CCN(C4CCOC4)CC2)O3)cn1 (stereo not drawn) [Example 725] |  |
|  | > 285 °C (dec.) |  | c1cc2c(cc1N1CCOCC1)CCC1(CCN(C3CCC3)CC1)O2 [Example 403] | Ki (human H3 receptor; [4]): < 200 nM; Ki [1, 5]: < 200 nM |
|  | 231 to 232 °C |  | COc1ccc(-c2ccc3c(c2C)COC2(CCN(C4CCC4)CC2)O3)cn1 [Example 551] | Ki (human H3 receptor; read-out: Human H3 Ki): < 200 nM; Ki ([1]; read-out: Rat H3 kI): < 200 nM |
|  | 194.6 to 195.8 °C |  | O=C(Nc1ccccc1)N1CCN(c2ccc3c(c2)COC2(CCN(C4CCC4)CC2)O3)CC1 [Example 276] | Ki (human H3 receptor; [8]): < 200 nM; Ki [1, 9]: < 200 nM |
|  | 229 to 231 °C |  | Clc1ccc(N2CCN(c3ccc4c(c3)CCC3(CCN(C5CCC5)CC3)O4)CC2)nn1 [Example 389] | Ki (human H3 receptor; [4]): < 200 nM; Ki [1, 5]: < 200 nM |
|  | 55 to 60 °C |  | N#Cc1ccc(Nc2ccc3c(c2)COC2(CCN(C4CCC4)CC2)O3)cc1 [Example 122] | Ki (human H3 receptor; [6]): < 200 nM; Ki [1, 7]: < 200 nM |
|  | 183 to 185 °C |  | O=c1ccc(CCc2ccc3c(c2)COC2(CCN(C4CCC4)CC2)O3)c[nH]1 [Example 528] | Ki (human H3 receptor; read-out: Human H3 Ki): < 200 nM; Ki ([1]; read-out: Rat H3 kI): < 200 nM |
|  | 193 to 195 °C |  | O=C(c1ccc(-c2ccc3c(c2)CCC2(CCN(C4CCC4)CC2)O3)cc1)N1CC[C@H](O)C1 [Example 182] | Ki (human H3 receptor; [8]): < 200 nM; Ki [1, 9]: < 200 nM |
|  | 240 to 245 °C |  | c1ccc(OC2CCN(c3ccc4c(c3)CCC3(CCN(C5CCC5)CC3)O4)CC2)nc1 [Example 412] | Ki (human H3 receptor; [4]): < 200 nM; Ki [1, 5]: < 200 nM |
|  | 88 to 90 °C |  | c1cc2c(cc1C1CCNCC1)CCC1(CCN(C3CCC3)CC1)O2 [Example 452] | Ki (human H3 receptor; read-out: Human H3 Ki): < 200 nM; Ki ([1]; read-out: Rat H3 kI): < 200 nM |
| < 200 nM | 230 to 232 °C | < 200 nM | CN(C)C(=O)N1CCC(COc2ccc3c(c2)CCC2(CCN(C4CCC4)CC2)O3)CC1 [Example 576] |  |
|  | 79 to 81 °C |  | OC(c1ccc(Cl)nc1)c1ccc2c(c1)COC1(CCN(C3CCC3)CC1)O2 (stereo not drawn) [Example 508] | Ki (human H3 receptor; read-out: Human H3 Ki): < 200 nM; Ki ([1]; read-out: Rat H3 kI): < 200 nM |

— patent US8513232B2, “Substituted spirocyclic piperidine derivatives as histamine-3 (H3) receptor ligands” (Cephalon, Inc., priority 2008, dated 2013)
